# Experiment: log p
# Type: physicochemical
row,Compound,log p
1,CC(C)Nc1c(-c2ccccc2)c(Cl)nc2ncnn12 [Example 147],2.45
2,CC(Nc1c(-c2c(F)cccc2Cl)c(Cl)nc2ncnn12)C(C)(C)C (centres unmarked) [Example 69],3.58
3,CCC(C)Nc1c(-c2ccccc2)c(Cl)nc2ncnn12 (centres unmarked) [Example 7],2.78
4,Fc1cc(C(F)(F)F)cc(Cl)c1-c1c(Cl)nc2ncnn2c1N1CCCCC1 [Example 177],4.03
5,CC(C)(C)CNc1c(-c2ccccc2)c(Cl)nc2ncnn12 [Example 109],3.17
6,CC(C)(C)Nc1c(-c2c(F)cc(F)cc2F)c(Cl)nc2ncnn12 [Example 154],3.05
7,CNc1c(-c2c(F)c(F)c(F)c(F)c2F)c(Cl)nc2ncnn12 [Example 84],2.41
8,CC(C)Nc1c(-c2ccccc2Cl)c(Cl)nc2ncnn12 [Example 131],2.65
9,CC(Nc1c(-c2ccc(F)cc2Cl)c(Cl)nc2ncnn12)C(F)(F)F (centres unmarked) [Example 46],3.04
10,CN(C)c1c(-c2c(F)cccc2F)c(Cl)nc2ncnn12 [Example 87],2.19
11,CC(C)CNc1c(-c2ccccc2)c(Cl)nc2ncnn12 [Example 127],2.79
12,CC1CCCCN1c1c(-c2ccc(F)cc2F)c(Cl)nc2ncnn12 (centres unmarked) [Example 188],3.44
13,Cc1nc2ncnn2c(N[C@H](C)C(C)C)c1-c1c(F)cccc1Cl [Example 79],2.7
14,Clc1nc2ncnn2c(N2CCCC2)c1-c1ccccc1 [Example 250],2.5
15,CCN(CC)c1c(-c2c(F)cc(F)cc2F)c(Cl)nc2ncnn12 [Example 26],3.05
16,CC1C=NN(c2c(-c3ccccc3Cl)c(Cl)nc3ncnn23)CC1C (centres unmarked) [Example 277],3.1
17,Fc1cccc(Cl)c1-c1c(Cl)nc2ncnn2c1N1CCCN1 [Example 260],2.29
18,CNc1c(-c2ccccc2F)c(Cl)nc2ncnn12 [Example 86],1.86
19,C=C(C)CN(CC)c1c(-c2ccc(F)cc2F)c(Cl)nc2ncnn12 [Example 93],3.54
20,C[C@H](Nc1c(-c2c(Cl)cccc2Cl)c(Cl)nc2ncnn12)C(F)(F)F [Example 53],3.02
21,C[C@H](Nc1c(-c2cccc(C(F)(F)F)c2Cl)c(Cl)nc2ncnn12)C(F)(F)F [Example 51],3.36
22,Fc1cc(C(F)(F)F)cc(Cl)c1-c1c(Cl)nc2ncnn2c1N1CCCC1 [Example 176],3.5

row,Compound,log p
1,CC1CCCCN1c1c(-c2ccccc2Cl)c(Cl)nc2ncnn12 (centres unmarked) [Example 248],3.6
2,C[C@@H](Nc1c(-c2c(F)cc(F)cc2F)c(Cl)nc2ncnn12)C(F)(F)F [Example 60],2.84
3,CC(C)C(C)Nc1c(-c2c(F)cc(F)cc2F)c(Cl)nc2ncnn12 (centres unmarked) [Example 73],3.2
4,Fc1cc(F)c(-c2c(Cl)nc3ncnn3c2N2CCC(C(F)(F)F)CC2)c(F)c1 [Example 160],3.41
5,Clc1ccc(-c2c(Cl)nc3ncnn3c2N2CCCCO2)c(Cl)c1 [Example 245],3.51
6,C=CCN(CC)c1c(-c2ccc(F)cc2F)c(Cl)nc2ncnn12 [Example 15],3.19
7,CC1CN(c2c(-c3ccccc3F)c(Cl)nc3ncnn23)CC(C)O1 (centres unmarked) [Example 162],2.67
8,C=C(C)CNc1c(-c2c(F)c(F)c(F)c(F)c2F)c(Cl)nc2ncnn12 [Example 104],3.09
9,Fc1cccc(F)c1-c1c(Cl)nc2ncnn2c1N1CCCCC1C(F)(F)F (centres unmarked) [Example 202],3.11
10,Fc1ccc(-c2c(Cl)nc3ncnn3c2N2CCCC2C(F)(F)F)c(F)c1 (centres unmarked) [Example 210],3.2
11,CC(C)Nc1c(-c2ccc(F)c(Cl)c2)c(Cl)nc2ncnn12 [Example 140],2.9
12,Cc1cc(C)n(-c2c(-c3c(F)cccc3Cl)c(Cl)nc3ncnn23)n1 [Example 268],2.87
13,CCC(C)Nc1c(-c2ccc(F)cc2F)c(Cl)nc2ncnn12 (centres unmarked) [Example 6],2.85
14,C=C(C)CN(CC)c1c(-c2ccccc2)c(Cl)nc2ncnn12 [Example 106],3.44
15,CC1CCCN1c1c(-c2ccccc2Cl)c(Cl)nc2ncnn12 (centres unmarked) [Example 255],3.1
16,CCCCNc1c(-c2ccc(F)cc2F)c(Cl)nc2ncnn12 [Example 149],2.9
17,CC(Nc1c(-c2c(F)cc(F)cc2F)c(Cl)nc2ncnn12)C(C)(C)C (centres unmarked) [Example 2],3.54
18,CC(C)C(C)Nc1c(-c2ccccc2)c(Cl)nc2ncnn12 (centres unmarked) [Example 74],3.14
19,CC(Nc1c(-c2c(F)cc(F)cc2F)c(Br)nc2ncnn12)C(F)(F)F (centres unmarked) [Example 66],2.9
20,CN1CCN(c2c(-c3c(F)cc(C(F)(F)F)cc3Cl)c(Cl)nc3ncnn23)CC1 [Example 174],1.68
21,Fc1ccccc1-c1c(Cl)nc2ncnn2c1N1CCCC1 [Example 163],2.49

# Now from value to compound:
row,log p,Compound
1,2.89,C=CCN(C)c1c(-c2ccc(F)cc2F)c(Cl)nc2ncnn12 [Example 14]
2,2.94,Cc1cc(C)n(-c2c(-c3ccc(F)cc3Cl)c(Cl)nc3ncnn23)n1 [Example 269]
3,2.87,CC(Nc1c(-c2c(F)cc(F)cc2F)c(Cl)nc2ncnn12)C(F)(F)F (centres unmarked) [Example 1]
4,2.69,CC(Nc1c(-c2ccccc2F)c(Cl)nc2ncnn12)C(F)(F)F (centres unmarked) [Example 49]
5,3.44,CCN(CC)c1c(-c2c(F)c(F)c(F)c(F)c2F)c(Cl)nc2ncnn12 [Example 22]
6,4.46,CC1CCCN(c2c(-c3c(F)cc(C(F)(F)F)cc3Cl)c(Cl)nc3ncnn23)C1 (centres unmarked) [Example 181]
7,2.82,CCN(CC)c1c(-c2ccccc2F)c(Cl)nc2ncnn12 [Example 18]
8,2.13,CCNc1c(-c2ccccc2F)c(Cl)nc2ncnn12 [Example 23]
9,3,CC1CCN(c2c(-c3ccccc3Cl)c(Cl)nc3ncnn23)NC1 (centres unmarked) [Example 271]
10,3.05,CCCNc1c(-c2c(F)c(F)c(F)c(F)c2F)c(Cl)nc2ncnn12 [Example 152]
11,2.74,CN(C)c1c(-c2c(F)c(F)c(F)c(F)c2F)c(Cl)nc2ncnn12 [Example 155]
12,3.85,Fc1cc(C(F)(F)F)cc(Cl)c1-c1c(Cl)nc2ncnn2c1N1CC=CCC1 [Example 179]
13,2.32,Fc1cc(F)c(-c2c(Cl)nc3ncnn3c2N2CCCN2)c(F)c1 [Example 262]
14,3.6,C[C@H](Nc1c(-c2c(F)cc(C(F)(F)F)c(F)c2F)c(Cl)nc2ncnn12)C(F)(F)F [Example 41]
15,4.12,C=C(C)CN(CC)c1c(-c2cccc(C(F)(F)F)c2Cl)c(Cl)nc2ncnn12 [Example 102]
16,3.32,CC1CNN(c2c(-c3c(F)cccc3Cl)c(Cl)nc3ncnn23)CC1C (centres unmarked) [Example 264]
17,2.39,Fc1ccc(-c2c(Cl)nc3ncnn3c2N2CCCN2)c(Cl)c1 [Example 261]
18,3,C[C@@H](Nc1c(-c2ccc(F)cc2Cl)c(Cl)nc2ncnn12)C(F)(F)F [Example 61]
19,3.05,Clc1nc2ncnn2c(N2CCCCC2)c1-c1ccccc1 [Example 251]
20,3.23,Fc1ccccc1-c1c(Cl)nc2ncnn2c1N1CCC(C(F)(F)F)CC1 [Example 166]
21,2.3,FCCCNc1c(-c2c(F)cc(F)cc2F)c(Cl)nc2ncnn12 [Example 12]
22,3.11,Fc1ccc(-c2c(Cl)nc3ncnn3c2N2CCCCO2)c(Cl)c1 [Example 204]

# — patent US20090149455A1, “Use of Triazolopyrimidines for Controlling Plant Diseases on Legumes” (Bayer CropScience AG, priority 2005, published 2009)
